From patent US20220339260A1, “METHOD FOR PRODUCING INSULIN-PRODUCING CELL USING DIHYDROINDOLIZINONE DERIVATIVES” (TOKYO INSTITUTE OF TECHNOLOGY, priority 2019, published 2022)

System: human iPS cell Toe strain
Experiment: Effect to promote differentiation from human iPS cells into insulin-producing cells (insulin-positive cell rate, Reference Example 1)
Type: cell-based
Parameters: key to Activity: the sum of activity values at the two concentrations was obviously higher than the control untreated with compounds while being lower than the positive control was expressed as +; the sum was equivalent to the positive control was expressed as ++; the sum was higher than the positive control was expressed as +++
Details: activity intensity: sum of activity values (increment in insulin-positive cell rate) at 2 μM and 10 μM compared with positive control (compound of Synthesis Example 1)
From the text: The evaluation system of the effect (efficacy) to promote differentiation from human iPS cells into insulin-producing cells was constructed with reference to known information (Non Patent Document 6). Further, the medium used in each differentiation stage was also produced with reference to known information (differentiation media A to E (Media A to E) described in Non Patent Document 6 were used respectively for stages 1 to 5; however, a medium free from GLP-1 receptor agonist and nicotinamide was used as differentiation medium E).
In order to evaluate the efficacy of each compound, the compound of Synthesis Example 1 was used as a positive control, and dimethylsulfoxide (DMSO) (SIGMA, D2650) with a final concentration of 0.1% was used as a control untreated with compounds. Each compound was dissolved in DMSO, and two types of compound solutions were prepared so as to have final concentrations of 2 μM and 10 μM after the compound was added to the medium. In the following evaluation, the compound solutions were added to the medium to 0.1% that is the final concentration of DMSO.
First, induction from human iPS cell Toe strain (National Institutes of Biomedical Innovation, Health and Nutrition) into cells on day 7 of culture (2 days after replacement with differentiation medium C (cells in the differentiation process from FOXA2-positive primitive gut tube cells into PDX1-positive pancreatic progenitor cells)) was performed according to the method of Non Patent Document 6 for “inducing differentiation from human iPS cells into pancreatic β cells”, and the cells were collected and thereafter stored in liquid nitrogen using Bambanker (NIPPON Genetics Co, Ltd.) at 1×10^7 cells/mL/tube, to produce a cell stock for evaluation. The cell stock was dissolved at the start of the evaluation of efficacy, suspended in differentiation medium C for stage 3 (DMEM high glucose (Life technologies, 11965092), 0.25 μM SANT-1, 0.1 μM LDN193189 (Stemgent, 04-0074), 10 μM SB431542, 2 μM Retinoic acid (Stemgent, 04-0021), 1% B27 serum free supplement (Life technologies, 17504044) and thereafter seeded in a 96-well plate (Corning, #3340) coated with Synthemax II (Corning, #5656) at 1×10^5 cells/well. After culturing for 2 days, the medium was removed, and new differentiation medium C for stage 3 with the compound or only DMSO added was added thereto at 100 μL/well. After culturing for 2 days, the medium was removed, and new differentiation medium D for stage 4 (DMEM high glucose, 0.1 μM LDN193189, 5 μM TGF-β type I receptor kinase inhibitor II (Calbiochem 616452), 0.3 μM (−)-indolactam V (Enzo life science ALX-420-011-C300), 1% B27 serum free supplement) with the compound or only DMSO added was added thereto at 100 μL/well. After culturing for 2 to 3 days, the medium was removed, and new differentiation medium E for stage 5 (GLP-1 receptor agonist and nicotinamide-free; Knockout […] (Life technologies, 12660012), 1% B27 serum free supplement) with the compound or only DMSO added was added thereto at 200 μL/well. After culturing for 2 days, the medium was removed, and a 4% paraformaldehyde phosphorus acid buffer (Wako, 163-20145) was added thereto at 150 μL/well and left standing for 30 to 60 minutes at room temperature to fix the cells. A phosphorus acid buffer (PBS) (Takara, T9181) containing 1% Triton X-100 (Sigma, T8787) was left standing for 15 minutes at room temperature, then washed with PBS-T (Takara, T9183), and was blocked for 1 hour using 20% Blocking One (Nacalai tesque, Tokyo, Japan) diluted with PBS-T at room temperature. After the removal of Blocking One, guinea pig anti-insulin antibody (Abcam, ab7842) diluted 200-fold with 20% Blocking One was added thereto at 50 μL/well, followed by standing at 4° C. overnight. […]

SMILES: Cc1cc2n(c1)C(C(=O)Nc1ncc(-c3ccc(OC(C)(C)C)cc3)s1)CCC2=O (stereo not shown) [Example 63]
- Activity: +++

SMILES: O=C1CCC(C(=O)Nc2ncc(-c3ccc(OC(F)(F)F)cc3)s2)n2cc(Cl)cc21 (stereo not shown) [Example 64]
- Activity: ++

SMILES: CC1(C(=O)Nc2ncc(-c3ccc(OC(F)(F)F)cc3)s2)CCC(=O)c2cccn21 (stereo not shown) [Example 65]
- Activity: +++

SMILES: Cc1ccc(-c2cnc(NC(=O)C3(C)CCC(=O)c4cccn43)s2)cc1 (stereo not shown) [Example 66]
- Activity: ++

SMILES: Cc1cccc(-c2cnc(NC(=O)C3(C)CCC(=O)c4cccn43)s2)c1 (stereo not shown) [Example 67]
- Activity: ++

SMILES: CC1(C(=O)Nc2ncc(-c3ccc4c(c3)OC(F)(F)O4)s2)CCC(=O)c2cccn21 (stereo not shown) [Example 68]
- Activity: ++

SMILES: CC(C)Oc1ccc(-c2cnc(NC(=O)C3(C)CCC(=O)c4cccn43)s2)cc1 (stereo not shown) [Example 69]
- Activity: ++

SMILES: Cc1cc(-c2cnc(NC(=O)C3(C)CCC(=O)c4cccn43)s2)ccc1OC(F)(F)F (stereo not shown) [Example 70]
- Activity: ++

SMILES: CC1(C(=O)Nc2ncc(-c3ccc(OC(F)(F)F)c(Cl)c3)s2)CCC(=O)c2cccn21 (stereo not shown) [Example 71]
- Activity: +++

SMILES: CC1(C(=O)Nc2ncc(-c3cccc(OC(F)(F)F)c3)s2)CCC(=O)c2cccn21 (stereo not shown) [Example 72]
- Activity: +++

SMILES: O=C1CCC(C(=O)Nc2ccc(-c3ccc(OC(F)(F)F)cc3)cc2)n2cccc21 (stereo not shown) [Example 73]
- Activity: +

SMILES: O=C1CCC(C(=O)Nc2ccc(-c3ccc4c(c3)OC(F)(F)O4)cc2)n2cccc21 (stereo not shown) [Example 74]
- Activity: +

SMILES: O=C1CCC(C(=O)Nc2ccc(-c3ccc(OC(F)F)cc3)cc2)n2cccc21 (stereo not shown) [Example 75]
- Activity: +

SMILES: O=C1CCC(C(=O)Nc2ccc(-c3ccc(OC(F)(F)F)c(Cl)c3)cc2)n2cccc21 (stereo not shown) [Example 76]
- Activity: +

SMILES: O=C1CCC(C(=O)Nc2ccc(-c3ccc(OC(F)(F)F)cc3)cc2)n2c(Br)ccc21 (stereo not shown) [Example 77]
- Activity: +

SMILES: O=C1CCC(C(=O)Nc2ccc(-c3ccc(OC(F)(F)F)cc3)cc2F)n2cccc21 (stereo not shown) [Example 78]
- Activity: ++

SMILES: O=C1CCC(C(=O)Nc2ccc(-c3ccc(OC(F)(F)F)c(Cl)c3)cc2F)n2cccc21 (stereo not shown) [Example 79]
- Activity: +

SMILES: CC(C)(C)Oc1ccc(-c2ccc(NC(=O)C3CCC(=O)c4cccn43)c(F)c2)cc1 (stereo not shown) [Example 80]
- Activity: +

SMILES: Cc1cc(-c2ccc(OC(F)(F)F)cc2)ccc1NC(=O)C1CCC(=O)c2cccn21 (stereo not shown) [Example 81]
- Activity: +

SMILES: O=C1CCC(C(=O)Nc2ccc(-c3ccc(OC(F)(F)F)cc3)cn2)n2cccc21 (stereo not shown) [Example 82]
- Activity: +

SMILES: O=C1CCC(C(=O)Nc2ccc3nc(-c4ccc(OC(F)(F)F)cc4)sc3c2)n2cccc21 (stereo not shown) [Example 83]
- Activity: +

SMILES: Cc1nc(NC(=O)C2CCC(=O)c3cccn32)sc1-c1ccc2c(c1)OC(F)(F)O2 (stereo not shown) [Example 84]
- Activity: +++

SMILES: Cc1nc(NC(=O)C2CCC(=O)c3cccn32)sc1-c1ccc(OCc2ccccc2)c(F)c1 (stereo not shown) [Example 85]
- Activity: +++

SMILES: Cc1nc(NC(=O)C2CCC(=O)c3cccn32)sc1-c1ccc(OCC(C)C)cc1 (stereo not shown) [Example 86]
- Activity: +++

SMILES: Cc1nc(NC(=O)C2CCC(=O)c3cccn32)sc1-c1cnc(OCC(C)C)c(Cl)c1 (stereo not shown) [Example 87]
- Activity: +++

SMILES: Cc1nc(NC(=O)C2CCC(=O)c3cccn32)sc1-c1ccc(OCC(F)(F)F)cc1 (stereo not shown) [Example 88]
- Activity: +++

SMILES: Cc1cc(-c2sc(NC(=O)C3CCC(=O)c4cccn43)nc2C)ccc1OC(F)(F)F (stereo not shown) [Example 89]
- Activity: +++

SMILES: Cc1nc(NC(=O)C2CCC(=O)c3cccn32)sc1C1=CCN(C(=O)OC(C)(C)C)CC1 (stereo not shown) [Example 90]
- Activity: +++

SMILES: Cc1nc(NC(=O)C2CCC(=O)c3cccn32)sc1-c1ccc(OC(F)F)cc1 (stereo not shown) [Example 91]
- Activity: +++

SMILES: Cc1cc(-c2ccc3nc(NC(=O)C4CCC(=O)c5cccn54)sc3c2)ccc1OC(F)(F)F (stereo not shown) [Example 92]
- Activity: +++

SMILES: O=C1CCC(C(=O)Nc2nc3ccc(-c4ccc(Cl)cc4)cc3s2)n2cccc21 (stereo not shown) [Example 93]
- Activity: +++
